Laboratory results published in patent US7750184B2, “Vitamin D receptor modulators” (Eli Lilly and Company, priority 2003, dated 2010).

Key:
rat osteocalcin promoter = test: OCN (osteocalcin) promoter assay; assay type: cell-based; settings: RG-15 (ROS 17/2.8) cells, 48 hr treatment, luciferase reporter
Method: 3. The OCN (osteocalcin) Promoter Assay
The OCN Promoter Assay is an indicator and marker for osteoporosis. […] Preferred assay results are less than 50 nM.
(3) Materials and Method for the OCN Promoter Assay:
The activation of osteocalcin by VDR ligands was evaluated in a rat osteoblast-like cell line RG-15 (ROS 17/2.8) stably expressing rat osteocalcin promoter fused with luciferase reporter gene. […] Confluent RG-15 cells maintained in DMEM/F-12 medium (3:1) containing 5% FBS, 300 μg/ml G418 and at 37° C. under 5% CO2/95% air atmosphere were trypsinized (0.25% trypsin) and plated into white opaque 96-well cell culture plates (25000 cells/well). After 24 hr, cells (in DMEM/F-12 medium+2% FBS) were treated with various concentrations of compounds, dissolved in DMSO. The final DMSO concentration remained at 0.01% (v/v). After 48 hr treatment, the medium was removed, cells were lysed with 50 μl of lysis buffer (From Luciferase reporter assay system, Roche Diagnostics, Indianapolis, Ind.) and assayed for luciferase activity using the Luciferase Reporter Gene Assay kit from Boehringer Mannheim as per manufacturer's specifications.

RXR-VDR heterodimer = molecular target: T1, RXR-VDR heterodimer (Homo sapiens, UniProt P11473); test: RXR-VDR heterodimerization assay (SaOS-2 cells); assay type: cell-based; settings: Gal4-RXR-DEF / VP16-VDR-LBD, luciferase reporter
T1 construct: Add the Gal4-RXR-DEF and VP16-VDR-LBD; expressed in transfected cells; host or cells: SaOS-2 cells
T1 sequence (P11473 127-423 limits assumed): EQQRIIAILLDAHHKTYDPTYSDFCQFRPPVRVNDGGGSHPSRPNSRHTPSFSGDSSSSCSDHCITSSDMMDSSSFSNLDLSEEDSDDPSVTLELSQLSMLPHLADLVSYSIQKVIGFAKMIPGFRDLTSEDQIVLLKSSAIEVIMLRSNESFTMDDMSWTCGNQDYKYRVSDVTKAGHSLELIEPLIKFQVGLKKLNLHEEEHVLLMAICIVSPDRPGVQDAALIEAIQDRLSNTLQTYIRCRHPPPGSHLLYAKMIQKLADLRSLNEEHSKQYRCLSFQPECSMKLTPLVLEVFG
T1 sequence (P19793 201-462 partner limits assumed): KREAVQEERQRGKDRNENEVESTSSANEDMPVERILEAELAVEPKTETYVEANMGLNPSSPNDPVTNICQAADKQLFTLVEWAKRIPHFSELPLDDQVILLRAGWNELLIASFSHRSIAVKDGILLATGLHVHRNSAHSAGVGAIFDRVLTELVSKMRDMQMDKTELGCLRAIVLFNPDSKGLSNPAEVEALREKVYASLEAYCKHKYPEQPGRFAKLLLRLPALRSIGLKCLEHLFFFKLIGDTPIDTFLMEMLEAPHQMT
Description: 1. The RXR-VDR heterodimer Assay:
This assay provides the VDR activity of a test compound.
(1) Materials and Method for RXR-VDR Heterodimerization Assay:
Luciferase Assay Reagent: • Use Steady-Glo Luciferase Reagent from Promega (Cat # E2550) Consists of:
Add plain DMEM media to tubes for mixing the DNA
Add the Reporter gene pFR-LUC
Add the Gal4-RXR-DEF and VP16-VDR-LBD
Make a stock solution of the compounds in DMSO
Further dilute in D-MEM (Low Glucose—With out Phenol Red)
Read the plates after drug treatment
Add Steady-Glo Luciferase Reagent mixture/wells
Count each well using a Luminescence counter, Top Count NXT by Packard

VDR = molecular target: T2, VDR (Homo sapiens, UniProt P11473); test: Caco-2 cell co-transfection assay (VDR CTF); assay type: cell-based; settings: Caco-2 cells, pGal4-VDR-LBD co-transfection, luciferase reporter
T2 construct: the receptor expression vector pGal4-VDR-LBD (10 ng); expressed in transfected cells; host or cells: Caco-2 cells
T2 sequence (P11473 127-423 limits assumed): T1 sequence (P11473 127-423 limits assumed)
Method: 2. The Caco-2 Cell Co-Transfection Assay:
The Caco-2 cell assay is an indicator for the undesirable condition of hypercalcemia. This co-transfection assay is a surrogate assay for in vivo calcemic activity of VDR ligands. […] Preferred assay results are greater than 1000 nM.
(2) Materials and Method for The Caco-2 Cell Assay:
Caco-2 cells, grown in phenol red free, DMEM (Invitrogen, Carlsbad, Calif.) containing 10% charcoal-stripped FCS (Hyclone, Logan, Utah), were transfected with Fugene 6 reagent (Roche Diagnostics, Indianapolis, Ind.). Cells (5000/well) were plated 18 h before transfection in a 96 well plate. The Cells were transfected with Gal4-responsive reporter pFRLuc (150 ng, Stratagene, La Jolla Calif.) and the receptor expression vector pGal4-VDR-LBD (10 ng), along with Fugene 6 reagent (0.2 μl/well). The DNA-Fugene complex was formed by incubating the mixture for 30 min at room temperature. The cells were transfected in triplicate for 5 h, and treated with various concentrations of VDR ligands (form 0.01 nM to 10,000 nM concentration range) 18 h post-transfection. The luciferase activity was quantified using Steady-Glo reagent kit (Promega, Madison, Wis.) as per manufacturer's specifications.

KERtr cells = test: Keratinocyte proliferation assay; assay type: cell-based; settings: Homo sapiens, 72 hr, BrdU incorporation, read-out: Kera. Prolif. IC50
Method: 5. The Keratinocte Proliferation Assay
This Assay is indicative for the treatment of psoriasis.
(5) The Keratinocyte Proliferation Assay:
KERtr cells (Human skin keratinocyte transformed with a retrovirus vector, obtained from ATCC) were plated in 96-well flat-bottomed plates (3000 cells/well) in 100 µl keratinocyte serum free medium supplemented with bovine pituitary extract in the absence of EGF (Life Technologies, Rockville, Md.) and incubated at 37° C. for two days. The cells were treated with various concentrations of VDR ligands (ten-fold serial dilution from 10,000 nM to 0.1 nM in triplicate), dissolved in 100 μl keratinocyte serum free medium supplemented with bovine pituitary extract in the absence of EGF and incubated at 37° C. for 72 hr. BrdU (5-bromo-2′-deoxyuridine) incorporation was analyzed as a measure of DNA replication (Cell proliferation ELISA kit, Roche Diagnostics, Indianapolis, Ind.) and absorbance was measured at 405 nm. Potency values (IC50) values were determined as the concentration (nM) of compound that elicited a half-maximal response.

[1] = Mouse hypercalcemia assay; settings: oral gavage for 6 days, serum ionized calcium 6 hours after last dosing
Method: The Mouse Hypercalcemia Assay is a six day hypercalcemia test for toxicity and selectivity. Acceptable test results are levels greater than 300 μg/kg/day. Preferred assay results are levels greater than 1000 μg/day.
(4) Materials and Method for the Mouse Hypercalcemia Assay:
Weanling, virus—antibody-free, five to six weeks old female DBF mice (Harlan, Indianapolis, Ind.) are used for all the studies. Animals are allowed to acclimate to local vivarium conditions for 2 days. […] The animals then are divided into groups with 4-5 mice per group. Different doses of test compounds prepared in 10% Ethanol and 90% sesame oil are administered to mice orally via gavage for 6 days. 1α-25(OH)2D3 0.5 μg/kg/d was also given to one group of mice as the positive control. […] Raw data of group differences is assessed by analysis of variance (ANOVA) using Fisher's protected least significant difference (PLSD) where the significance level was P<0.05.

Structure (SMILES)	EC50 (rat osteocalcin promoter; Rattus norvegicus, 48 h) [nM]	EC50 (RXR-VDR heterodimer) [nM]	EC50 (VDR) [nM]	EC50 (rat osteocalcin promoter) [nM]	IC50 (KERtr cells) [nM]	Mouse Hypercal [1] [µg/kg/day]
CCC(CC)(c1ccc(OC[C@H](O)C(C)(C)C)c(C)c1)c1ccc(OS(C)(=O)=O)c(C)c1 [Ex. 1, 3′-[4-(2-hydroxy-3,3-dimethylbutoxy)-3-methylphenyl]-3′-[4-(methanesulfonyloxy)-3-methylphenyl]pentane]	2.72	3.41	118	–	–	–
CCC(CC)(c1ccc(OCC(O)C(C)(C)C)c(C)c1)c1ccc(N(C)S(C)(=O)=O)c(C)c1 (single isomer, unassigned) [Ex. 21, N-(4-{1-ethyl-1-[4-(2-hydroxy-3,3-dimethyl-butoxy)-3-methyl-phenyl]-propyl}-2-methyl-phenyl)-N-methyl-methanesulfonamide]	–	–	–	124	67	–
CCC(CC)(c1ccc(OCC(=O)C(C)(C)C)c(C)c1)c1ccc(OS(=O)(=O)CC(F)(F)F)c(C)c1 [Ex. 7]	84	–	331	–	–	100
CCC(CC)(c1ccc(NS(C)(=O)=O)c(C)c1)c1ccc(OCC(O)C(C)(C)C)c(C)c1 (single isomer, unassigned) [Ex. 14, 3′-[4-(2-Hydroxy-3,3-dimethylbutoxy)-3-methylphenyl]-3′-[4-(methanesulfonylamino)-3-methylphenyl]pentane]	9.77	–	89	–	2	<300
CCC(CC)(c1ccc(OS(C)(=O)=O)cc1)c1ccc(OCC(O)C(C)(C)C)c(Cl)c1 (single isomer, unassigned) [Ex. 44, 3′-[3-chloro-4-(2-hydroxy-3,3-dimethylbutoxy)phenyl]-3′-(4-methylsulfonyloxyphenyl)pentane]	–	2.21	86.6	2.4	–	–
CCC(CC)(c1ccc(NS(=O)(=O)CC)c(C)c1)c1ccc(OCC(=O)C(C)(C)C)c(C)c1 [Ex. 23, N-(4-{1-[4-(3,3-Dimethyl-2-oxo-butoxy)-3-methyl-phenyl]-1-ethyl-propyl}-2-methyl-phenyl)-ethanesulfonamide]	0.33	0.817	6.06	–	–	500
CCC(CC)(c1ccc(OS(=O)(=O)C(F)(F)F)c(C)c1)c1ccc(OCC(=O)C(C)(C)C)c(Cl)c1 [Ex. 48, 3′-[3-chloro-4-(2-oxo-3.3-dimethylbutoxy)phenyl]-3′-[3-methyl-4-(trifluoromethylsulfonyloxy)phenyl]pentane]	54.1	–	–	–	13	<1000
CCC(CC)(c1ccc(OCC(=O)C(C)(C)C)c(C)c1)c1ccc(OS(=O)(=O)C(F)(F)F)c(C)c1 [Ex. 5, 3′-[4-(2-oxo-3,3-dimethylbutoxy)-3-methylphenyl]-3′-[4-(trifluoromethanesulfonyloxy)-3-methylphenyl]pentane]	20.8	–	1590	–	–	>500
CCC(CC)(c1ccc(OC[C@@](C)(O)C(C)(C)C)c(C)c1)c1ccc(OS(=O)(=O)C(F)(F)F)c(C)c1 (stereo in doubt) [Ex. 35, trifluoro-methanesulfonic acid 4-{1-ethyl-1-[4-(2-hydroxy-2,3,3-trimethyl-butoxy)-3-methyl-phenyl]-propyl}-2-methyl-phenyl ester]	20.1	138	616	–	–	–
CCC(CC)(c1ccc(OCC(=O)C(C)(C)C)c(C)c1)c1cc(C)c(OS(C)(=O)=O)c(C)c1 [Ex. 40, 3′-[4-(2-oxo-3,3-dimethylbutoxy)-3-methylphenyl]-3′-[3,5-dimethyl-4-methylsulfonyloxy-phenyl]pentane]	1.91	–	375	–	–	300
CCC(CC)(c1ccc(OS(C)(=O)=O)cc1)c1ccc(OCC(O)C(C)(C)C)c(Cl)c1 (racemic) [Ex. 43, 51, 3′-[3-chloro-4-(2-hydroxy-3,3-dimethylbutoxy)phenyl]-3′-(4-methylsulfonyloxyphenyl)pentane]	7.53	–	–	–	4	–
Cc1cc(C2(c3ccc(OCC(=O)C(C)(C)C)c(C)c3)CCCCC2)ccc1OCC(=O)C(C)(C)C [CC, 1-(4-{1-[4-(3,3-Dimethyl-2-oxo-butoxy)-3-methyl-phenyl]-cyclohexyl}-2-methyl-phenoxy)-3,3-dimethyl-butan-2-one, reference compound]	10000	–	710000	–	–	>30000
CCC(CC)(c1ccc(OS(=O)(=O)C(F)(F)F)cc1)c1ccc(OCC(=O)C(C)(C)C)c(Cl)c1 [Ex 46, 52, 3′-[3-chloro-4-(2-Oxo-3.3-dimethylbutoxy)]-3′-(4-trifluoromethylsulfonyloxyphenyl)pentane]	217	–	–	–	90	–
CCC(CC)(c1ccc(NS(C)(=O)=O)c(C)c1)c1ccc(OCC(=O)C(C)(C)C)c(C)c1 [Ex. 17, N-(4-{1-[4-(3,3-Dimethyl-2-oxo-butoxy)-3-methyl-phenyl]-1-ethyl-propyl}-2-methyl-phenyl)-methanesulfonamide]	3.75	–	–	–	2	–
CCC(CC)(c1ccc(OC[C@H](O)C(C)(C)C)c(C)c1)c1ccc(OS(C)(=O)=O)c(C)c1 (single isomer, unassigned) [Ex. 3, 3′-[4-(2-hydroxy-3,3-dimethylbutoxy)-3-methylphenyl]-3′-[4-(methanesulfonyloxy)-3-methylphenyl]pentane]	–	–	133	16.3	–	50
CCC(CC)(c1ccc(OC[C@H](O)C(C)(C)C)c(C)c1)c1ccc(OS(C)(=O)=O)c(C)c1 (single isomer, unassigned) [Ex. 2, 3′-[4-(2-hydroxy-3,3-dimethylbutoxy)-3-methylphenyl]-3′-[4-(methanesulfonyloxy)-3-methylphenyl]pentane]	–	–	46.5	5.1	–	50
